Reference: patent publication US10065990B2, “Cyclic peptide compound, and preparation method, pharmaceutical composition and use thereof” (HANGZHOU GUANYU BIO-MEDICAL CO., LTD, priority 2013, dated 2018)

How the values were obtained:
HDAC7 = biological target: T1, HDAC7 (Homo sapiens, UniProt Q8WUI4); experiment: HDAC biochemical activity measurement (fluorescent substrate deacetylation);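 on all read-outs here: fluorogenic deacetylation assay using acetyl-lysine substrate at 20 µM, enzyme and compound incubated 30 min at 37 °C, then developer added, fluorescence read at 360/460 nm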; conditions: for IC50 HDAC7: 37° C. 30 minutes
T1 sequence (Q8WUI4 1-952): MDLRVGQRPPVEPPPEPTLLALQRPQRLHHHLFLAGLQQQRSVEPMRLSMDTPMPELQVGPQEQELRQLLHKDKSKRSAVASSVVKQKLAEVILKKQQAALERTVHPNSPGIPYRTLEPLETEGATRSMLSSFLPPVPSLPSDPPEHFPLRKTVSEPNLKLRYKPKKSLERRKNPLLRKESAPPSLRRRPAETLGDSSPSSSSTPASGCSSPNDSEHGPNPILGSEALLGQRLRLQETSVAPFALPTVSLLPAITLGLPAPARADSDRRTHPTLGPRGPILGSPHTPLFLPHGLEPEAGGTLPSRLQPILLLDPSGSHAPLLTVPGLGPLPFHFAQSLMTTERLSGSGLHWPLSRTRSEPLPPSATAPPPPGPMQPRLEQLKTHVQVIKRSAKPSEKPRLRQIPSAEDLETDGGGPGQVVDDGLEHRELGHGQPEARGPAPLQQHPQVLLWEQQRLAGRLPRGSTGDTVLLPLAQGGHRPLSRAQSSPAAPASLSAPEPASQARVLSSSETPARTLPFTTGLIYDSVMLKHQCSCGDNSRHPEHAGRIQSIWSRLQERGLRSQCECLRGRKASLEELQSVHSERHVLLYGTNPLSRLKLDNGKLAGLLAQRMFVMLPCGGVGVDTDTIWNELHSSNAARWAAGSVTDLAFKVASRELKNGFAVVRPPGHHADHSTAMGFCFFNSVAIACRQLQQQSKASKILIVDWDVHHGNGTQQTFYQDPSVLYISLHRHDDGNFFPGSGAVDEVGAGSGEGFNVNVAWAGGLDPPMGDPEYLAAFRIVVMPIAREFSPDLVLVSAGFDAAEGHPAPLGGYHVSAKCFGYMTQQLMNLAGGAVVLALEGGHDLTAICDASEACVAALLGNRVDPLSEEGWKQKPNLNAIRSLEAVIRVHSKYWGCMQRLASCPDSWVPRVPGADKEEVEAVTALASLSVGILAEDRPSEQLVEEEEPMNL

[1] = system: MDA-MB-231 (breast cancer cells); experiment: MTT cancer cell growth inhibition; format: cell-based; conditions: Homo sapiens, MDA-MB-231, 72 h, read-out: GI50 MDA-MB-231, MTT, 72 hours incubation, MDA-MB-231 cells
Description: (§1) MTT assay principle is yellow MTT can penetrate membrane into the cell, succinic dehydrogenase of the mitochondria in living cells can make exogenous MTT reduction of insoluble in water of blue-violet acicular formazan for crystallization and deposition in the cell, crystallization can be dissolved dimethyl sulfoxide (DMSO) solution, detected its absorbance at 490 nm/570 nm wavelength by enzyme-linked immunosorbent assay, which can reflect the number of cells.
(§2) Using DMEM+10% FBS culture medium or using 1640+10% FBS culture, respectively.
(§3) a) Cells were seeded in 96-well plates with the inoculation of 1500/well, 190 μl/hole, 37° C., 5% of CO2 incubator overnight;
(§4) b) The next day each well was added 10 μl of different drugs. The final concentration of drug was 10^−5˜10^−10M, three parallel holes; 37° C., 5% CO2 culture incubator for 72 hours incubation;
(§5) c) Per well was added 20 μl 5 mg/ml of MTT, 37° C., 5% CO2 culture incubator for 4 hours incubation;
(§6) d) The supernatant was discarded. Each well was added 100 μl of DMSO and oscillation;
(§7) e) 570 nm readings. Calculate cell viability. GI50 calculation based on the results.

[2] = system: K562 (human leukemia cells); experiment: MTT cancer cell growth inhibition; format: cell-based; conditions: Homo sapiens, K562, 72 h, MTT, 72 hours incubation, K562 cells; read-out: GI50 K562
Description: as §1, §2, §3, §4, §5, §6, §7

[3] = system: KBM5-T315I (human chronic myelogenous leukemia); experiment: MTT cancer cell growth inhibition; format: cell-based; conditions: Homo sapiens, 72 h, MTT, 72 hours incubation, KBM5-T315I cells; read-out: GI50 KBM5-T315I
Description: as §1, §2, §3, §4, §5, §6, §7

[4] = system: MCF-7 (human breast cancer cells); experiment: MTT cancer cell growth inhibition; format: cell-based; conditions: Homo sapiens, MCF7, 72 h, MCF-7 cells, 72 hours incubation, read-out: GI50 MCF
Description: as §1, §2, §3, §4, §5, §6, §7

[5] = system: Bel-7402 (human hepatoma cells); experiment: MTT cancer cell growth inhibition; format: cell-based; conditions: Homo sapiens, Bel-7402, 72 h, MTT, 72 hours incubation, Bel-7402 cells; read-out: GI50 Bel-7402
Description: as §1, §2, §3, §4, §5, §6, §7

[6] = system: Huh-7 (human hepatoma cells); experiment: MTT cancer cell growth inhibition; format: cell-based; conditions: Homo sapiens, Huh-7, 72 h, MTT, 72 hours incubation, Huh-7 cells; read-out: GI50 Huh-7
Description: as §1, §2, §3, §4, §5, §6, §7

[7] = system: U937 (human leukemia cells); experiment: MTT cancer cell growth inhibition; format: cell-based; conditions: Homo sapiens, U-937, 72 h, U937 cells, MTT, 72 hours incubation; read-out: GI50 U93
Description: as §1, §2, §3, §4, §5, §6, §7

[8] = system: SGC-7901 (human gastric cancer cells); experiment: MTT cancer cell growth inhibition; format: cell-based; conditions: Homo sapiens, SGC-7901, 72 h, MTT, 72 hours incubation, SGC-7901 cells; read-out: GI50 SGC-7901
Description: as §1, §2, §3, §4, §5, §6, §7

[9] = system: H1975 (non-small cell lung adenocarcinoma); experiment: MTT cancer cell growth inhibition; format: cell-based; conditions: Homo sapiens, NCI-H1975, 72 h, MTT, 72 hours incubation, H1975 cells; read-out: GI50 H1975
Description: as §1, §2, §3, §4, §5, §6, §7

[10] = system: Hela (human cervical cancer cells); experiment: MTT cancer cell growth inhibition; format: cell-based; conditions: Homo sapiens, HeLa, 72 h, Hela cells, MTT, 72 hours incubation; read-out: GI50 Hela
Description: as §1, §2, §3, §4, §5, §6, §7

[11] = system: HCC827 (human non-small cell lung cancer cells); experiment: MTT cancer cell growth inhibition; format: cell-based; conditions: Homo sapiens, HCC827, 72 h, MTT, 72 hours incubation, HCC827 cells; read-out: GI50 HCC827
Description: as §1, §2, §3, §4, §5, §6, §7

[12] = system: BGC-823 (human gastric cancer cells); experiment: MTT cancer cell growth inhibition; format: cell-based; conditions: Homo sapiens, BGC-823, 72 h, BGC-823 cells, MTT, 72 hours incubation; read-out: GI50 BG
Description: as §1, §2, §3, §4, §5, §6, §7

[13] = system: MOLT-4 (human acute lymphoblastic leukemia cells); experiment: MTT cancer cell growth inhibition; format: cell-based; conditions: Homo sapiens, MOLT-4, 72 h, MOLT-4 cells, MTT, 72 hours incubation; read-out: GI50 Mol
Description: as §1, §2, §3, §4, §5, §6, §7

[14] = system: A549 (human lung cancer cells); experiment: MTT cancer cell growth inhibition; format: cell-based; conditions: Homo sapiens, A549, 72 h, A549 cells, MTT, 72 hours incubation; read-out: GI50 A54
Description: as §1, §2, §3, §4, §5, §6, §7

[15] = system: PANC-1 (Pac-1, human pancreatic cancer cells); experiment: MTT cancer cell growth inhibition; format: cell-based; conditions: Homo sapiens, PANC-1, 72 h, PANC-1 cells, MTT, 72 hours incubation; read-out: GI50 PAN
Description: as §1, §2, §3, §4, §5, §6, §7

[16] = system: HT1080 (human fibrosarcoma cells); experiment: MTT cancer cell growth inhibition; format: cell-based; conditions: Homo sapiens, HT-1080, 72 h, HT1080 cells, MTT, 72 hours incubation; read-out: GI50 HT1
Description: as §1, §2, §3, §4, §5, §6, §7

[17] = system: lncap (prostate cancer cells); experiment: MTT cancer cell growth inhibition; format: cell-based; conditions: Homo sapiens, LNCaP, 72 h, lncap cells, MTT, 72 hours incubation; read-out: GI50 lnca
Description: as §1, §2, §3, §4, §5, §6, §7

[18] = system: DU145 (human prostate cancer cells); experiment: MTT cancer cell growth inhibition; format: cell-based; conditions: Homo sapiens, DU-145, 72 h, DU145 cells, MTT, 72 hours incubation; read-out: GI50 Du1
Description: as §1, §2, §3, §4, §5, §6, §7

[19] = system: KBM-5 (human chronic myelogenous leukemia); experiment: MTT cancer cell growth inhibition; format: cell-based; conditions: Homo sapiens, KBM5, 72 h, MTT, 72 hours incubation, KBM-5 cells; read-out: GI50 KBM-5
Description: as §1, §2, §3, §4, §5, §6, §7

[20] = system: N-87 (human gastric cancer cells); experiment: MTT cancer cell growth inhibition; format: cell-based; conditions: Homo sapiens, 72 h, MTT, 72 hours incubation, N-87 cells; read-out: GI50 N-87
Description: as §1, §2, §3, §4, §5, §6, §7

Compound	GI50 [1] [nM]	GI50 [2] [nM]	GI50 [3] [nM]	GI50 [4] [nM]	GI50 [5] [nM]	GI50 [6] [nM]	GI50 [7] [nM]	GI50 [8] [nM]	GI50 [9] [nM]	GI50 [10] [nM]	GI50 [11] [nM]	GI50 [12] [nM]	GI50 [13] [nM]	GI50 [14] [nM]	GI50 [15] [nM]	GI50 [16] [nM]	GI50 [17] [nM]	GI50 [18] [nM]	GI50 [19] [nM]	GI50 [20] [nM]	also measured
C/C=C1\NC(=O)c2cc(SC)cc(n2)CNC(=O)C[C@@H](/C=C/CCS)OC(=O)[C@H](C)NC1=O [Compound 233]	36	24	46	20	81	41	80	51	51	50	81	60	30	20	20	70	20	50	97	35	IC50 HDAC7 (HDAC7): no activity
C/C=C1\NC(=O)c2cc(SCC)cc(n2)CNC(=O)C[C@@H](/C=C/CCSC(=O)CCCCCCC)OC(=O)[C@H](C(C)C)NC1=O [Compound 248]	45	48	72	30	29	33	80	26	65	60	93	60	30	30	20	50	30	30	23	83	IC50 (μM) HDAC7 (HDAC7): no activity
C/C=C1\NC(=O)c2cc(SC)cc(n2)CNC(=O)C[C@@H](/C=C/CCS)OC(=O)[C@H](C(C)C)NC1=O [Compound 227]	51	23	55	20	72	17	40	53	35	70	45	50	60	20	10	70	20	60	49	19	IC50 HDAC7 (HDAC7): no activity
C/C=C1\NC(=O)c2ccc(SC)c(n2)CNC(=O)C[C@@H](/C=C/CCSC(C)=O)OC(=O)[C@H](CCCCN)NC1=O [Compound 194]	27	29	25	40	27	84	60	43	23	50	35	50	30	30	40	10	20	30	51	36	IC50 HDAC7 (HDAC7): no activity
